From patent US20240327354A1, “GRAM-NEGATIVE BACTERIA EFFLUX PUMP INHIBITORS” (INSTITUT NATIONAL DE LA SANTÉ ET DE LA RECHERCHE MÉDICALE, priority 2021, published 2024)

Assays:
A. baumannii LMG = assay: Assay 4: boosting of antibiotic activity by EPI example 37 in A. baumannii; type: cell-based, Acinetobacter baumannii; details: MIC of the named antibiotic boosted by 100 μM example 37
Source text: (§1) Escherichia coli BW25113 (CGSC 7636) and its derivatives E. coli ΔtolC (JW5503-1, ΔtolC732::kan, CGSC 11430), E. coli ΔacrA (JW0452-3, ΔacrA748::kan, CGSC 11843) and E. coli ΔacrB (JW0451-2, ΔacrB747::kan, CGSC 8609) were obtained from E. coli Genetic Stock Center (CGSC, New Haven, Connecticut) and originated from the Keio Collection (Baba T et al, Mol Sys Biol, 2006). Klebsiella pneumoniae (LMG 2095/ATCC 13883) and K. pneumoniae (ATCC43816), Pseudomonas aeruginosa (PAO1), Acinetobacter baumannii (LMG 1025, ATCC 17978), were obtained from ATCC or BCCM/LMG Bacteria Collection. All bacteria were grown and tested in cation-adjusted Mueller-Hinton broth (CAMHB; BD Difco) at 37° C. For conservation, log phase bacteria were frozen (−80° C.) in CAMHB supplemented with 15% glycerol.
(§2) Measurement of the Impact of EPI Example 37 on the Boosting of Antibiotic Activity in E. coli, A. baumannii, K. pneumoniae and P. aeruginosa.
(§3) Bacterial suspensions were then prepared in CAMHB from a growing pre-culture, (E. coli [OD600=0.001], A. baumannii [OD600=0.001], K. pneumoniae [OD600=0.001] and P. aeruginosa [OD600=0.001]), and added to the microplate using a ViaFill. Microplate containing bacterial cultures were then grown (5 h or 24 h, 37° C.) and bacterial viability determined by either resazurin reduction or OD600.

K. pneumoniae ATCC43816 = assay: Assay 4: boosting of antibiotic activity by EPI example 37 in K. pneumoniae ATCC43816; type: cell-based, Klebsiella pneumoniae; details: MIC of the named antibiotic boosted by 100 μM example 37
Source text: as §1, §2, §3

K. pneumoniae ATCC13883 = assay: Assay 4: boosting of antibiotic activity by EPI example 37 in K. pneumoniae ATCC13883; type: cell-based, Klebsiella pneumoniae; details: MIC of the named antibiotic boosted by 100 μM example 37
Source text: as §1, §2, §3

[1] = tested on: A. baumannii LMG 1025 (ATCC 17978); assay: Assay 2: growth inhibition of A. baumannii by sub-inhibitory chloramphenicol in combination with examples (resazurin reduction); type: cell-based; details: Acinetobacter baumannii; antibiotic alone, no EPI
E. coli BW25113 = assay: Assay 4: boosting of antibiotic activity by EPI example 37 in E. coli; type: cell-based, Escherichia coli; details: MIC of the named antibiotic boosted by 100 μM example 37
Source text: as §1, §2, §3

[2] = tested on: A. baumannii LMG 1025 (ATCC 17978); assay: Assay 3: growth inhibition of A. baumannii by sub-inhibitory novobiocin in combination with examples (resazurin reduction); type: cell-based; details: Acinetobacter baumannii; antibiotic alone, no EPI

O=C(N[C@H](CO)[C@H](O)c1ccc([N+](=O)[O-])cc1)C(Cl)Cl [chloramphenicol]
A. baumannii LMG Fold Boosted MIC By 100 μM example 37 (A. baumannii LMG): * (* = 2-3.9 fold)
K. pneumoniae ATCC43816 Fold Boosted MIC By 100 μM example 37 (K. pneumoniae ATCC43816): * (* = 2-3.9 fold)
K. pneumoniae ATCC13883 Fold Boosted MIC By 100 μM example 37 (K. pneumoniae ATCC13883): ** (** = 4-7.9 fold)
MIC90 [1]: 25 to 100 µg/mL
E. coli BW25113 Fold Boosted MIC By 100 μM example 37 (E. coli BW25113): *** (*** = 8 fold +)

CO[C@@H]1[C@@H](OC(N)=O)[C@@H](O)[C@H](Oc2ccc3c(O)c(NC(=O)c4ccc(O)c(CC=C(C)C)c4)c(=O)oc3c2C)OC1(C)C [novobiocin]
K. pneumoniae ATCC43816 Fold Boosted MIC By 100 μM example 37 (K. pneumoniae ATCC43816): ** (** = 4-7.9 fold)
K. pneumoniae ATCC13883 Fold Boosted MIC By 100 μM example 37 (K. pneumoniae ATCC13883): *** (*** = 8 fold +)
MIC90 [2]: 12.5 µg/mL
E. coli BW25113 Fold Boosted MIC By 100 μM example 37 (E. coli BW25113): *** (*** = 8 fold +)
